From US4970210A, “Triazinone lipoxygenase compounds” (Abbott Laboratories, priority 1988, dated 1990) come the findings set out here.

SMILES strings stand for the structures.

One assay addresses T1, 5-lipoxygenase (Rattus norvegicus, UniProt P12527).
T1 construct: 20,000×g supernatant from homogenized RBL-1 cells; endogenous in cells; host or cells: RBL-1 cells (20,000×g supernatant of homogenate)
T1 sequence (P12527 1-673): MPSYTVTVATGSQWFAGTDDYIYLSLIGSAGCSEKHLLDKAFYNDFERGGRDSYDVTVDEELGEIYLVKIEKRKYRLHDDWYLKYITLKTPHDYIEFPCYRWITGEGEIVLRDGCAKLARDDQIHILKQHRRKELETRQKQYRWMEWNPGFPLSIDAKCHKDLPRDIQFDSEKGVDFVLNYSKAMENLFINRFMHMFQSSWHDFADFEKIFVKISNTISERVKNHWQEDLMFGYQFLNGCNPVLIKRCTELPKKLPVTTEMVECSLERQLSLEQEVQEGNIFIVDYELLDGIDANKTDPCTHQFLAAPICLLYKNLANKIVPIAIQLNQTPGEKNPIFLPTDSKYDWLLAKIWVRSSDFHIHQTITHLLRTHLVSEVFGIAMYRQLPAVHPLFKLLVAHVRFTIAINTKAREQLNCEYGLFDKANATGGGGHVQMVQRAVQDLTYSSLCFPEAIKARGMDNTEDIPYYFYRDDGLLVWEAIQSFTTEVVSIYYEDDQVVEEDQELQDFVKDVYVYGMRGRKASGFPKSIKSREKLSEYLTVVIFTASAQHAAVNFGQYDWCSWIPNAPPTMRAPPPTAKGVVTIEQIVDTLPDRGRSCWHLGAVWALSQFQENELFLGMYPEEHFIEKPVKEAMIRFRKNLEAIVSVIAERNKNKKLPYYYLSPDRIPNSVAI
Put plainly: Inhibition of 5-lipoxygenase (20,000×g supernatant from homogenized RBL-1 cells). It counts as biochemical. The conditions noted are these: in vitro, read-out: IC50 (concentration of compound producing 50% enzyme inhibition). Here is the method: Inhibition of 5-lipoxygenase activity was determined using the 20,000×g supernatant from homogenized RBL-1 cells in a similiar manner as that described by Dyer and coworkers (Dyer, R. D.; Haviv., F.; Hanel, A. M.; Bornemeier, D. A.; Carter, G. W. Fed. Proc.,Fed.Am.Soc. Exp. Biol. 1984, 43,1462a). IC50 values (concentration of compound producing 50% enzyme inhibition) were calculated by linear regression analysis of percentage inhibition versus log inhibitor concentration plots.
For the molecule `CC(C)C1CN(c2ccccc2)NC(=O)N1` (racemic) [Example 82, D,L-5-i-propyl-1-phenyl-2H,4H-tetrahydro-1,2,4-triazin-3-one], the IC50 came to 7 µM.
Still for that read-out and setting: the result for `CCCCC1CN(c2ccccc2)NC(=O)N1` (racemic) [Example 83, D,L-5-n-butyl-1-phenyl-2H 4H-tetrahydro-1,2,4-triazin-3-one] reads 2 µM; that for `CC1CN(c2cccc(Cl)c2)NC(=O)N1` (racemic) [Example 85, D,L-5-methyl-1-(3-chlorophenyl)-2H,4H-tetrahydro-1,2,4-triazin-3-one], 3 µM; that for `CCC1CN(c2ccccc2)NC(=O)N1` (racemic) [Example 86, D,L-5-ethyl-1-phenyl-2H,4H-tetrahydro-1,2,4-triazin-3-one], 7 µM.
`N#Cc1cccc(N2CCCC(=O)N2)c1` [Example 1, 1-(3'-cyanophenyl)-2H-tetrahydropyridazin-3-one]: the IC50 came out at 11 µM.
Consider `COc1cccc(N2CCCC(=O)N2)c1` [Example 3, 1-(3'-methoxyphenyl)-2H-tetrahydropyridazin-3-one], for which the IC50 stood at 6 µM.
On to `O=C1CCCN(c2ccc(Oc3ccccc3)cc2)N1` [Example 6, 1-(4'-phenoxyphenyl)-2H-tetrahydropyridazin-3-one], for which the IC50 stood at 2 µM.
On the same count and under the same terms, the result for `O=C1CCCN(c2cccc(C(F)(F)F)c2)N1` [Example 8, 1-(3'-trifluoromethylphenyl)-2H-tetrahydropyridazin-3-one] reads 5 µM; that for `CCc1cccc(N2CCCC(=O)N2)c1` [Example 10, 1-(3'-ethylphenyl)-2H-tetrahydropyridazin-3-one], 3 µM.
For the molecule `CCCCCCCCc1ccc(N2CCCC(=O)N2)cc1` [Example 15, 1-(4'-octylphenyl)-2H-tetrahydropyridazin-3-one], the IC50 was 6 µM.
Same read-out and setting: to `CCOC(=O)c1cccc(N2CCCC(=O)N2)c1` [Example 16, 1-(3'-ethoxycarbonylphenyl)-2H-tetrahydropyridazin-3-one] belongs 5 µM; to `Cc1cc(C)cc(N2CCCC(=O)N2)c1` [Example 24, 1-(3',5'-dimethylphenyl)-2H-tetrahydropyridazin-3-one], 3 µM; to `O=C1CCCN(c2cc(Cl)cc(Cl)c2)N1` [Example 26, 1-(3',5'-dichlorophenyl)-2H-tetrahydropyridazin-3-one], 1 µM.
Consider `CCCCC1CCN(c2ccccc2)NC1=O` (stereo not drawn) [Example 38, 1-phenyl-4-butyl-2H-tetrahydropyridazin-3-one], for which the IC50 came out at 0.6 µM.
On the same count and under the same terms, to `CCCCC1CC(=O)NN(c2ccccc2)C1` (stereo not drawn) [Example 40, 1-phenyl-5-butyl-2H-tetrahydropyridazin-3-one] belongs 0.5 µM; to `O=C1CCCN(c2cccc(Cl)c2)N1` [Example 46, 1-(3'-chlorophenyl)-2H-tetrahydropyridazin-3-one], 2.5 µM; to `O=C1CCCN(c2ccccc2F)N1` [Example 51, 1-(2'-fluorophenyl)-2H-tetrahydropyridazin-3-one], 10 µM.
On the same count and under the same terms, to `O=C1NCCN(c2ccccc2)N1` [Example 68, 1-(phenyl)-2 H,4 H-tetrahydro-1,2,4-triazin-3-one] belongs 21 µM.
On the same count and under the same terms, to `Cc1cccc(N2CCNC(=O)N2)c1` [Example 70, 1-(3'-methylphenyl)-2 H,4 H-tetrahydro-1,2,4-triazin-3-one] belongs 15 µM; to `O=C1NCCN(c2cccc(Br)c2)N1` [Example 73, 1-(3'-bromophenyl)-2 H,4 H-tetrahydro-1,2,4-triazin-3-one], 5 µM; to `CCc1cccc(N2CCNC(=O)N2)c1` [Example 74, 1-(3'-ethylphenyl)-2 H,4 H-tetrahydro-1,2,4-triazin-3-one], 13 µM.
Regarding `CSc1cccc(N2CCNC(=O)N2)c1` [Example 75, 1-(3'-methylthiophenyl)-2 H,4 H-tetrahydro-1,2,4-triazin-3-one], the IC50 amounted to 14 µM.
The same measure, in the same setting: the result for `O=C1NCCN(c2cccc(C(F)(F)F)c2)N1` [Example 76, 1-(3'-trifluoromethylphenyl)-2 H,4 H-tetrahydro-1,2,4-triazin-3-one] reads 17 µM; that for `O=C1NCCN(c2cccc(Cl)c2)N1` [Example 78, 1-(3'-chlorophenyl)-2 H,4 H, tetrahydro-1,2,4-triazin-3-one], 6 µM.
With `O=C1NCCN(c2cccc(OCc3ccccc3)c2)N1` [Example 79, 1-(3'-benzyloxyphenyl)-2 H,4 H-tetrahydro-1,2,4-triazin-3-one], the IC50 turned out to be 1 µM.
On the same count and under the same terms, the result for `Cc1cc(C)cc(N2CCNC(=O)N2)c1` [Example 80, 1-(3',5'-dimethylphenyl)-2 H,4 H-tetrahydro-1,2,4-triazin-3-one] reads 12 µM; that for `CC1(C)CN(c2ccccc2)NC(=O)N1` [Example 87, 5,5-dimethyl-1-phenyl-2H,4H-tetrahydro-1,2,4-triazin-3-one], 7 µM; that for `O=C1NCCN(c2cccc(F)c2)N1` [Example 88, 1-(3-fluorophenyl)-2H,4H-tetrahydro-1,2,4-triazin-3-one], 19 µM.
As for `O=C1NCCN(c2ccccn2)N1` [Example 90, 1-(2-pyridyl)-2H,4H-tetrahydro-1,2,4-triazin-3-one], the IC50 amounted to 26 µM.
For the molecule `O=C1NN(c2ccccc2)CCN1Cc1ccccc1` [Example 99, 4-Benzyl-1-phenyl-2H,4H-tetrahydro-1,2,4-triazin-3-one], the IC50 was 8 µM.
On the same count and under the same terms, the result for `S=C1NCCN(c2ccccc2)N1` [Example 102, 1-Phenyl-2H,4H-tetrahydro-1,2,4-triazin-3-thione] reads 17 µM; that for `S=C1NCCN(c2cccc(Cl)c2)N1` [Example 103, 1-(3-Chlorophenyl)-2H,4H-tetrahydro-1,2,4-triazin-3-thione], 5 µM.
Same read-out and setting: to `Cc1cccc(N2CCCC(=S)N2)c1` [Example 106, 1-(3'-methylphenyl)-2H-tetrahydro-pyridazin-3-thione] belongs 1 µM.
With `CC(=O)N1CCN(c2ccccc2)NC1=O` [Example 107, 4-Acetyl-1-phenyl-2H,4H-tetrahydro-1,2,4-triazin-3-one], the IC50 is 3 µM.
Take `CC(C)C(=O)N1CCN(c2ccccc2)NC1=O` [Example 109, 4-Isobutyryl-1-phenyl-2H,4H-tetrahydro-1,2,4-triazin-3-one]: the IC50 was 1 µM.
Same read-out and setting: the result for `CC(=O)N1CCN(c2cccc(Cl)c2)NC1=O` [Example 111, 4-Acetyl-1-(3-chlorophenyl)-2H,4H-tetrahydro-1,2,4-triazin-3-one] reads 1 µM; that for `O=C1CCCN(c2ccccc2)N1COCc1ccccc1` [Example 113, 1-phenyl-2-benzyloxymethyl-2 H-tetrahydropyridazin-3-one], 71 µM.

Another assay has as its system leukotriene biosynthesis. Put plainly: In vivo inhibition of leukotriene biosynthesis after oral administration, rat peritoneal anaphylaxis model. The conditions noted are these: 0.25 h, 200 micro mol/kg oral dose, one hour prior to antigen challenge, peritoneal fluid 15 minutes after challenge, vs mean of control group. On the procedure: Inhibition of the biosynthesis of leukotrienes in vivo after oral administration of compound was determined using a rat peritoneal anaphylaxis model in a similiar manner as that described by Young and coworkers (Young, P. R.; Dyer, R. D.; Carter, G. W. Fed. Proc., Fed. Am Soc.Exp. Biol. 1985, 44 1185). In this model rats were injected intraperitoneally (ip) with rabbit antibody to bovine serum albumin (BSA) and three hours later injected ip with BSA to induce an antigen-antibody response. Rats were sacrificed 15 minutes after this challenge and the peritoneal fluids were collected and analyzed for leukotriene levels. Test compounds were administered by gauge one hour prior to the antigen challenge. Percent inhibition values were determined by comparing the treatment group to the mean of the control group.
Broadly, the inhibition in vivo is the change of the read-out against control, counted positive when it falls. Low readings indicate little suppression, high ones strong suppression. `CC1CN(c2ccccc2)NC(=O)N1` (racemic) [Example 81, D,L-5-methyl-1-phenyl-2H,4H-tetrahydro-1,2,4-triazin-3-one]: the inhibition in vivo at 200 µmol/kg was found to be 84%.
Same read-out and setting: to `O=C1NCCN(c2ccccc2)N1` [Example 68, 1-(phenyl)-2 H,4 H-tetrahydro-1,2,4-triazin-3-one] belongs 85%; to `Cc1cccc(N2CCNC(=O)N2)c1` [Example 70, 1-(3'-methylphenyl)-2 H,4 H-tetrahydro-1,2,4-triazin-3-one], 66%.
Same read-out and setting: to `O=C1NCCN(c2cccc(Br)c2)N1` [Example 73, 1-(3'-bromophenyl)-2 H,4 H-tetrahydro-1,2,4-triazin-3-one] belongs 46%; to `CCc1cccc(N2CCNC(=O)N2)c1` [Example 74, 1-(3'-ethylphenyl)-2 H,4 H-tetrahydro-1,2,4-triazin-3-one], 58%.
`CSc1cccc(N2CCNC(=O)N2)c1` [Example 75, 1-(3'-methylthiophenyl)-2 H,4 H-tetrahydro-1,2,4-triazin-3-one] gave an inhibition in vivo at 200 µmol/kg of 73%.
For the molecule `O=C1NCCN(c2cccc(Cl)c2)N1` [Example 78, 1-(3'-chlorophenyl)-2 H,4 H, tetrahydro-1,2,4-triazin-3-one], the inhibition in vivo at 200 µmol/kg was 80%.
`CC(=O)N1CCN(c2cccc(Cl)c2)NC1=O` [Example 111, 4-Acetyl-1-(3-chlorophenyl)-2H,4H-tetrahydro-1,2,4-triazin-3-one] registered an inhibition in vivo at 200 µmol/kg of 74%.
